The record followed here is the Deep4Chem optical property database.

The data set in a line: solvent given as SMILES.
[1] abbreviates: in c1ccc2c(c1)c1ccccc1n2-c1ccc(-c2ccc(-n3c4ccccc4c4ccccc43)cc2)cc1.

Molecule `Cc1cc(C#Cc2ccccc2)c2ccc3c(C#Cc4ccccc4)cc(C#Cc4ccccc4)c4ccc1c2c43` came in with a fluorescence lifetime (in CS(C)=O) of 1.89 ns and a fluorescence lifetime (in ClC(Cl)(Cl)Cl) of 1.57 ns.
For the molecule `Cc1ccc2nc3c(=O)[nH]c(=O)[nH]c3nc2c1`, the fluorescence lifetime stood at 0.4 ns (in CC#N) and 0.32 ns (in ClCCCl).
For the setting “in ClC(Cl)Cl”, `CC1(C)CC[N+]2=c3c(cc4c(c31)Oc1cc3c(cc1C=4c1ccccc1C(=O)O)C(c1ccccc1C(=O)O)=c1cc4c5c(c1O3)C(C)(C)CC[N+]=5CCC4)CCC2` displayed a fluorescence lifetime of 2.41 ns.
`CCCCCCc1cc(-c2ccc3c(c2)C2CCCC2N3c2ccc3c(c2)C(C)(C)c2ccccc2-3)sc1/C=C1\C(=O)c2ccc(C(=O)O)cc2C1=O` (centres undefined) registered a fluorescence lifetime (in ClC(Cl)Cl) of 1.32 ns.
Turning to `O=S1c2ccccc2-c2cc(-c3c4ccccc4cc4ccccc34)ccc21` (centres undefined), the fluorescence lifetime came to 2.4 ns (in C1CCCCC1), 3.5 ns (in CC#N) and 3.3 ns (in ClCCl).
In turn, `CN(C)c1ccc(/C=C/c2cc[n+](CCCOCC(COCCC[n+]3ccc(/C=C/c4ccc(N(C)C)cc4)cc3)(COCCC[n+]3ccc(/C=C/c4ccc(N(C)C)cc4)cc3)COCCC[n+]3ccc(/C=C/c4ccc(N(C)C)cc4)cc3)cc2)cc1` had a fluorescence lifetime (in CCCCCCCCO) of 0.48 ns; a fluorescence lifetime (in CCCO) of 0.18 ns; a fluorescence lifetime (in CCO) of 0.11 ns; a fluorescence lifetime (in CO) of 0.09 ns; a fluorescence lifetime (in ClC(Cl)Cl) of 0.46 ns; a fluorescence lifetime (in ClCCl) of 0.31 ns.
Molecule `CC1=[N+]2C(=C(c3ccccc3)c3ccc(/C=C/c4ccc(C(=C(c5ccccc5)c5ccccc5)c5ccccc5)cc4)n3[B-]2(F)F)C=C1` had a fluorescence lifetime (in C1CCOC1) of 5.43 ns.
For the molecule `Cc1ccccc1C1=C2C=c3c(oc4ccc(F)cc34)=[N+]2[B-](F)(F)n2c1cc1c3cc(F)ccc3oc12`, the fluorescence lifetime stood at 4.02 ns (in C1CCCCC1), 4.22 ns (in CCOC(C)=O) and 4.3 ns (in CO).
Where the note is “in ClCCl”, `CCCCn1c2c(-c3ccc(N(c4ccccc4)c4ccccc4)cc3)cc(C#N)cc2c2cc(C#N)cc(-c3ccc(N(c4ccccc4)c4ccccc4)cc3)c21` returned a fluorescence lifetime of 2.29 ns.
Regarding `CC1(C)c2ccccc2N(c2ccc(-c3ccc4c(c3)C(=O)c3ccc(-c5ccc(N6c7ccccc7C(C)(C)c7ccccc76)cc5)cc3C4=O)cc2)c2ccccc21`, the fluorescence lifetime came to 4.2 ns (in Cc1ccccc1) and 41 ns under setting [1].
With `COC(=O)c1ccc(Oc2ccc3c4c(cccc24)C(=O)N(c2c(C(C)C)cccc2C(C)C)C3=O)cc1`, where the note is “in ClCCl”, the fluorescence lifetime amounted to 3.37 ns.
On the same count and under the same terms, then `O=P1(c2ccccc2)C2=C(c3ccccc31)S(=O)(=O)c1ccccc12` (centres undefined), with 12.9 ns.
Regarding `COc1c2ccccc2c(OC)c2c1c1ccc(C(F)(F)F)cc1n2C`, the fluorescence lifetime came to 26 ns (in C1CCCCC1), 31.2 ns (in CC#N), 28.6 ns (in CO) and 25.8 ns (in ClCCl).
The molecule `Oc1ccc(Br)cc1-c1nc2c(c3c1-c1ccccc1CC3)-c1ccccc1CC2` registered a fluorescence lifetime (in ClCCl) of 1.94 ns.
In the case of `N#Cc1ccc(/C=C2\OC(=O)c3cc(N)ccc32)cc1`, the fluorescence lifetime was determined as 0.51 ns (in CC#N); 0.54 ns (in CC(C)=O); 2.4 ns (in CC(C)CO); 2.2 ns (in CCO); 0.75 ns (in CCOC(C)=O); 2.67 ns (in CO).
For `CCCCCCCCCCN1C(=O)c2cc(NCCCOCCO)c3c4c(cc(NCCCOCCO)c(c24)C1=O)C(=O)N(CCCCCCCCCC)C3=O`, the fluorescence lifetime came to 7.8 ns (in CO) and 9.7 ns (in ClC(Cl)Cl).
For `COC(=O)/C=C/c1ccc2ccc3cccc4ccc1c2c34`, the fluorescence lifetime came to 2.8 ns (in C1CCOC1), 2.4 ns (in CC#N) and 2.6 ns (in CC(C)=O).
On to `CN(c1ccccc1)c1ccc(/C=C/c2ccccc2)cc1`, for which the fluorescence lifetime stood at 1.86 ns (in CC#N) and 0.62 ns (in CCCCCC).
For `c1ccc(Nc2nc(Nc3ccccc3)nc(Nc3ccc4cc5ccccc5cc4c3)n2)cc1`, the fluorescence lifetime by setting is: (in C1COCCO1) 13.3 ns; (in CCOC(C)=O) 9 ns.
As to `COc1ccc2c(c1)c1cc(OC)ccc1n2-c1ccc(S(=O)(=O)c2ccc(-n3c4ccc(OC)cc4c4cc(OC)ccc43)cc2)cc1`, the fluorescence lifetime (in Cc1ccccc1) worked out at 11 ns.
In the case of `Nc1cccc2c1ccc1[n+]2[B-](F)(F)n2c-1cc1c3ccccc3c3ccccc3c12`, the fluorescence lifetime (in ClCCl) was 2.19 ns.
Regarding `N#Cc1ccc2[nH]ccc2c1`, the fluorescence lifetime was found to be 4.4 ns (in C1CCOC1); 4.2 ns (in C1COCCO1); 4.4 ns (in CC#N); 4.6 ns (in CC(C)O); 4.3 ns (in CCO); 2.9 ns (in CO). Moreover, the fluorescence lifetime turned out to be 7.1 ns (in CS(C)=O); 5.4 ns (in NC=O); 0.3 ns (in O); 0.1 ns (in OCC(F)(F)F); 0.4 ns (in [2H]O[2H]).
Turning to `CCOC(=O)c1ccccc1-c1c2ccc(=[N+](CC)CC)cc-2oc2c1c(=O)oc1c3c4c(cc12)CCCN4CCC3`, the fluorescence lifetime is, setting by setting: (in CCO) 0.43 ns; (in ClC(Cl)Cl) 3.44 ns; (in O) 0.13 ns.
For `C=Cc1cc2cc3c(cc2oc1=O)OCO3`, the fluorescence lifetime (in CC#N) was 3.68 ns.
Molecule `COc1ccc(-c2oc3cccc4c5c(-c6ccc(OC)c(OC)c6)c(=N)oc6cccc(c2c34)c65)cc1OC` came in with a fluorescence lifetime (in ClC(Cl)Cl) of 1.9 ns.
Turning to `O=Cc1ccc(N(c2ccc(C=O)cc2)c2ccc(-c3ccc4c(c3)C(=O)c3ccccc3C4=O)cc2)cc1`, the fluorescence lifetime (in C1CCOC1) was 2.01 ns; the fluorescence lifetime (in CCOC(C)=O) was 1.49 ns; the fluorescence lifetime (in CCOCC) worked out at 6.6 ns; the fluorescence lifetime (in Cc1ccccc1) came to 6.83 ns; the fluorescence lifetime (in ClC(Cl)(Cl)Cl) amounted to 2.82 ns; the fluorescence lifetime (in ClCCl) was 0.79 ns.
`CC(C)c1ccc2ccc3c(C(C)C)ccc4ccc1c2c43` returned a fluorescence lifetime (in CCCCCC) of 52.9 ns, a fluorescence lifetime (in CO) of 85.7 ns and a fluorescence lifetime (in ClCCl) of 40.3 ns.
Molecule `N#Cc1cc(N2c3ccccc3Sc3ccccc32)c(N2c3ccccc3Sc3ccccc32)cc1C#N` came in with a fluorescence lifetime under setting [1] of 48.2 ns.
In the case of `CC(C)(C)c1ccc(Oc2cc3c4c(cc(Oc5ccc(C(C)(C)C)cc5)c5c6c(Oc7ccc(C(C)(C)C)cc7)cc7c8c(cc(Oc9ccc(C(C)(C)C)cc9)c(c2c45)c86)C(=O)N(Cc2ccccc2)C7=O)C(=O)N(Cc2ccccc2)C3=O)cc1`, where the note is “in ClC(Cl)Cl”, the fluorescence lifetime stood at 6.3 ns.
In turn, `C(#Cc1cccs1)C(C#Cc1cccs1)=Cc1ccc(C=C(C#Cc2cccs2)C#Cc2cccs2)cc1` returned a fluorescence lifetime (in ClC(Cl)Cl) of 1.6 ns.
In the case of `NS(=O)(=O)c1ccc(N2N=C(c3ccc(O)cc3)CC2c2ccc(Br)cc2)cc1` (centres undefined), the fluorescence lifetime runs as follows: (in C1CCOC1) 2.25 ns; (in C1COCCO1) 2.17 ns; (in CC#N) 2.2 ns; (in CC(C)O) 1.98 ns; (in CCO) 1.84 ns; (in CCOC(C)=O) 2.18 ns. The same molecule displayed a fluorescence lifetime (in CN(C)C=O) of 2.12 ns, a fluorescence lifetime (in CO) of 1.67 ns, a fluorescence lifetime (in CS(C)=O) of 2 ns and a fluorescence lifetime (in O) of 3.07 ns.
For `c1cc2c3c(c1)OCCCCCCOc1cccc(c1-c1c4ccccc4c-3c3ccccc13)OCCCCCCO2`, for the setting “in C1CCCCC1”, the fluorescence lifetime amounted to 8.64 ns.
In turn, `FC(F)(F)C(F)(F)C(F)(F)C1=NC2=C(Oc3ccccc3)C=C3c4cc(Oc5ccccc5)c5nc(C(F)(F)C(F)(F)C(F)(F)F)nc6c(Oc7ccccc7)cc(c4c56)=C4C=C(Oc5ccccc5)C(=N1)C2C34` (centres undefined) yielded a fluorescence lifetime (in C1CCOC1) of 2.8 ns.
On to `Cc1ccc(-c2nc(-c3ccc(-c4nc(-c5ccc(C)cc5)c(-c5ccc(C)cc5)[nH]4)cc3)[nH]c2-c2ccc(C)cc2)cc1`, for which the fluorescence lifetime (in CS(C)=O) was determined as 1.07 ns.
With `CN1CCCc2cc3c(C(F)(F)F)cc(=O)oc3cc21`, the fluorescence lifetime (in C1CCCCC1) was determined as 4.2 ns, the fluorescence lifetime (in CC#N) worked out at 5.6 ns and the fluorescence lifetime (in CCO) is 5.1 ns.
Regarding `CC(=O)O[B-]1(OC(C)=O)OC(/C=C/c2ccc(C)cc2)=CC(/C=C/c2ccc(C)cc2)=[O+]1`, the fluorescence lifetime is, setting by setting: (in C1CCOC1) 1.32 ns; (in CC#N) 1.23 ns; (in CC(C)=O) 1.19 ns; (in CS(C)=O) 1.27 ns; (in Cc1ccccc1) 1.34 ns; (in ClC(Cl)Cl) 1.25 ns. This molecule also had a fluorescence lifetime (in ClCCl) of 1.26 ns.
For `CCOC(=O)C(C(=O)OCC)C1=[N+]2C(=C(c3ccc(C)cc3)c3ccc(C(C(=O)OCC)C(=O)OCC)n3[B-]2(F)F)C=C1`, the fluorescence lifetime (in C1CCCCC1) came out at 3.15 ns; the fluorescence lifetime (in C1CCOC1) amounted to 2.82 ns; the fluorescence lifetime (in CCOC(C)=O) was 2.5 ns; the fluorescence lifetime (in CO) came out at 2.18 ns; the fluorescence lifetime (in Cc1ccccc1) is 4.14 ns; the fluorescence lifetime (in ClC(Cl)Cl) was 3.62 ns.
As to `COC(=O)C(NC(=O)OC(C)(C)C)c1ccc2oc(-c3ccc(F)cc3)nc2c1` (centres undefined), the fluorescence lifetime amounted to 1.23 ns (in CC1CCCCC1), 1.47 ns (in CC#N) and 1.53 ns (in CO).
For `Cc1ccc(-n2c(C)ccc2C)cc1`, for the setting “in CC#N”, the fluorescence lifetime came out at 4.4 ns.
For the setting “in ClCCl”, `COc1ccc(/C=C/C2=C3CCc4ccccc4C3=[O+][B-](F)(F)O2)cc1` displayed a fluorescence lifetime of 0.24 ns.
For `c1ccc2c(c1)ncc1ccc3cnc4ccccc4c3c12`, the fluorescence lifetime (in CC#N) is 6.3 ns.
In turn, `Cc1cc(C)c(B(c2ccc(-n3c4ccccc4c4ccccc43)cc2)c2c(C)cc(C)cc2C)c(C)c1` showed a fluorescence lifetime (in Cc1ccccc1) of 3.7 ns.
For `COc1ccc2cc([C@H](C)C(=O)O)ccc2c1`, the fluorescence lifetime is, setting by setting: (in C1CCOC1) 11 ns; (in CC#N) 9.96 ns; (in CC(C)O) 10.8 ns; (in CCCCO) 11.4 ns; (in CCO) 10.4 ns; (in CO) 8.48 ns. Moreover, the fluorescence lifetime is, setting by setting: (in ClCCl) 6.93 ns; (in O) 9.6 ns.
The molecule `N#C/C(=C\c1ccc(-c2ccncc2)cc1)c1ccc(-c2ccncc2)cc1` showed a fluorescence lifetime (in ClCCl) of 0.1 ns.
